Results as given in patent US20060194837A1, “Tetrahydroisoquinoline compounds” (priority 2004, published 2006).
pKi: −log10 of the molar value. Read-outs that look alike come from different tables or passages of the source.

Experiments:
human H3 receptor = target: T1, human H3 receptor (Homo sapiens, UniProt Q9Y5N1); assay: H3 receptor binding (N-[3H]-α-methylhistamine displacement); conditions: membranes of SK-N-MC cells expressing cloned human H3 receptor, 0.8 nM N-[3H]-α-methylhistamine, 60 min at 25° C.
T1 construct: expressed in transfected cells
T1 sequence (Q9Y5N1 whole entry): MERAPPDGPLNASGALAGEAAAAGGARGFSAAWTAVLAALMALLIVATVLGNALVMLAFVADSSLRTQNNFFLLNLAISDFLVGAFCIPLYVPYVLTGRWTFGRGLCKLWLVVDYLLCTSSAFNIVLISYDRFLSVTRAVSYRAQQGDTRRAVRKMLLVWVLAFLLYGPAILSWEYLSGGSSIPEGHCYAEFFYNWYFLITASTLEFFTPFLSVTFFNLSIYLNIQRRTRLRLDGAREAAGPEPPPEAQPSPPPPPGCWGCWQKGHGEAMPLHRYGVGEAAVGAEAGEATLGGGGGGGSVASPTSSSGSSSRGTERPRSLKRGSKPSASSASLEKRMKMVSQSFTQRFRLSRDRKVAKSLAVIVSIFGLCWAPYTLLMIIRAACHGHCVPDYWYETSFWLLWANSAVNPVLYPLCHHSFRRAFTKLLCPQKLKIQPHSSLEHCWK

Rat SERT = target: T2, Rat SERT (Rattus norvegicus, UniProt P31652); assay: Rat brain SERT binding ([3H]-citalopram displacement); conditions: rat brain membranes without cerebellum, 0.6 nM [3H]-citalopram, 60 min at 25° C.; for pKi: read-out: Rat SERT Ki
T2 construct: A rat brain without cerebellum (Zivic Laboratories, Inc.—Pittsburgh, Pa.) was homogenized; tissue Zivic Laboratories, Inc; host or cells: rat brain without cerebellum, membranes
T2 sequence (P31652 whole entry): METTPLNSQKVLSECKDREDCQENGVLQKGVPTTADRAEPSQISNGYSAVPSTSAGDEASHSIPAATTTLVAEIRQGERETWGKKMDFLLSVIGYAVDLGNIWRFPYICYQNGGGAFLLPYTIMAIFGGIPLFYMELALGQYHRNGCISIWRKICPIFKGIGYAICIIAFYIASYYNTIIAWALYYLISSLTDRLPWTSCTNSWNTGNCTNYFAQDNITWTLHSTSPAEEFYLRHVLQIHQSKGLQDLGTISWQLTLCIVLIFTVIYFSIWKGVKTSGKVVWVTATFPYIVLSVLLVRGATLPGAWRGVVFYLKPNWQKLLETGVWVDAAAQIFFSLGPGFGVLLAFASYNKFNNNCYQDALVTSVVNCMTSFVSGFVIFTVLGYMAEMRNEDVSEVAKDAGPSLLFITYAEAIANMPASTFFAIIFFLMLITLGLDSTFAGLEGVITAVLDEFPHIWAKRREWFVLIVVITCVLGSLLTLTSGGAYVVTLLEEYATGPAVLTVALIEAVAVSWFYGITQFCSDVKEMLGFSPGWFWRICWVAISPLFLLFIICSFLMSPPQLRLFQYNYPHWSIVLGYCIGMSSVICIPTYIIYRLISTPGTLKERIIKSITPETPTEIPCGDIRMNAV
Method: The supernatant was removed and re-centrifuged at 15,000 rpm for 30 min. […] Membranes were incubated with 0.6 nM [^3H]-Citalopram plus/minus test compounds for 60 min at 25° C. and harvested by rapid filtration over GF/C glass fiber filters (pretreated with 0.3% polyethylenimine) followed by four washes with ice-cold buffer.

human SERT = target: T3, human SERT (Homo sapiens, UniProt P31645); assay: Human SERT binding (3H-citalopram displacement); conditions: HEK293 membranes expressing human SERT, rt 1 h
T3 construct: expressed in transfected cells; host or cells: HEK293 membranes
T3 sequence (P31645 whole entry): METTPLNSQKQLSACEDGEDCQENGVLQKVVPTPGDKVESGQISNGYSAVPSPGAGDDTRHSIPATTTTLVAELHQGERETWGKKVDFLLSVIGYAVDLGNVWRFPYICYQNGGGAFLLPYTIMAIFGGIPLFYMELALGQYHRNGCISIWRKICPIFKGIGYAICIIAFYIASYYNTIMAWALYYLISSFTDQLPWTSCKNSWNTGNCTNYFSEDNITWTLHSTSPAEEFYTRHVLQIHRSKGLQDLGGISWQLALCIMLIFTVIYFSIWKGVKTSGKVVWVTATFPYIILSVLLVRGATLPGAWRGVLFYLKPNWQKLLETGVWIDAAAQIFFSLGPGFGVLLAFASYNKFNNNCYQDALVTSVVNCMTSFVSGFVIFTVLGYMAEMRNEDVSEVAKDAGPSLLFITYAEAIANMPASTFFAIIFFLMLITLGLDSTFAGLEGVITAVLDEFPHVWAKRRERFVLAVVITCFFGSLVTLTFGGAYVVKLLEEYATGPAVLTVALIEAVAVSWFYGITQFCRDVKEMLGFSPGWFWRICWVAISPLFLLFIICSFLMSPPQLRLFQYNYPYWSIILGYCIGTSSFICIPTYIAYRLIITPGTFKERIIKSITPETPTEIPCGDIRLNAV
Method: Homogenized HEK293 (Human Embryonic Kidney) membranes expressing the human SERT were incubated with ^3H-citalopram (SERT) at rt for 1 h in 50 mM Tris, 120 mM NaCl, 5 mM KCl (pH 7.4). […] The membranes were washed and the radioactivity was counted as above.

pKi (human H3 receptor) | pKi (Rat SERT) | pKi (human SERT) | Ki (Rat SERT; Rat SERT Ki (nM)) [nM] | SMILES
8.15 | 8.00 | 8.22 |  | COc1ccc(C2CN(C)Cc3cc(OCCCN4CCCC(C(F)(F)F)C4)ccc32)cc1 (stereo not drawn) [Example 25, 4-(4-Methoxy-phenyl)-2-methyl-7-[3-(3-trifluoromethyl-piperidin-1-yl)-propoxy]-1,2,3,4-tetrahydro-isoquinoline]
8.70 | 8.70 | 8.52 |  | COc1ccc(C2CN(C)Cc3cc(OCCCN4CC[C@@H](O)C4)ccc32)cc1 (stereo partly drawn) [Example 31, 1-{3-[4-(4-Methoxy-phenyl)-2-methyl-1,2,3,4-tetrahydro-isoquinolin-7-yloxy]-propyl}-(R)-pyrrolidin-3-ol]
7.68 | 8.10 | 8.05 |  | COc1ccc(C2CN(C)Cc3cc(OCCCN4C[C@@H](C)O[C@@H](C)C4)ccc32)cc1 (stereo partly drawn) [Example 32, 7-[3-(2,6-Dimethyl-morpholin-4-yl)-propoxy]-4-(4-methoxy-phenyl)-2-methyl-1,2,3,4-tetrahydro-isoquinoline]
9.00 |  | 8.52 | 2 | COc1ccc(C2CN(C)Cc3cc(OCCCN4CCCC4C)ccc32)cc1 (stereo not drawn) [Example 35, 4-(4-Methoxy-phenyl)-2-methyl-7-[3-(2-methyl-pyrrolidin-1-yl)-propoxy]-1,2,3,4-tetrahydro-isoquinoline]
8.15 | 8.70 | 8.52 |  | COc1ccc(C2CN(C)Cc3cc(OCCCN4CCCCC4CCO)ccc32)cc1 (stereo not drawn) [Example 36, 2-(1-{3-[4-(4-Methoxy-phenyl)-2-methyl-1,2,3,4-tetrahydro-isoquinolin-7-yloxy]-propyl}-piperidin-2-yl)-ethanol]
7.70 | 8.05 | 8.10 |  | CCN(CCCOc1ccc2c(c1)CN(C)CC2c1ccc(OC)cc1)CCOC (stereo not drawn) [Example 40, Ethyl-(2-methoxy-ethyl)-{3-[4-(4-methoxy-phenyl)-2-methyl-1,2,3,4-tetrahydro-isoquinolin-7-yloxy]-propyl}-amine]
8.52 | 8.52 | 8.10 |  | COc1ccc(C2CN(C)Cc3cc(OCC(O)CN4CCCCC4)ccc32)cc1 (stereo not drawn) [Example 42, 1-[4-(4-Methoxy-phenyl)-2-methyl-1,2,3,4-tetrahydro-isoquinolin-7-yloxy]-3-piperidin-1-yl-propan-2-ol]
8.52 | 7.85 | 7.59 |  | CN1Cc2cc(OCCCN3CCC(F)CC3)ccc2C(c2cccc(Cl)c2)C1 (stereo not drawn) [Example 46, 4-(3-Chloro-phenyl)-7-[3-(4-fluoro-piperidin-1-yl)-propoxy]-2-methyl-1,2,3,4-tetrahydro-isoquinoline]
8.00 | 7.57 | 7.96 |  | CN1Cc2cc(OCCCN3CCC(F)CC3)ccc2C(c2ccc(Cl)cc2)C1 (stereo not drawn) [Example 47, 4-(4-Chloro-phenyl)-7-[3-(4-fluoro-piperidin-1-yl)-propoxy]-2-methyl-1,2,3,4-tetrahydro-isoquinoline]
9.00 | 6.65 | 6.60 |  | COc1ccc(C2CN(C(C)(C)C)Cc3cc(OCCCN4CCCCC4)ccc32)cc1 (stereo not drawn) [Example 64, 2-tert-Butyl-4-(4-methoxy-phenyl)-7-(3-piperidin-1-yl-propoxy)-1,2,3,4-tetrahydro-isoquinoline]
9.00 | 8.30 | 8.40 |  | CCN1Cc2cc(OCCCN3CCCCC3)ccc2C(c2ccc(OC)cc2)C1 (stereo not drawn) [Example 66, 2-Ethyl-4-(4-methoxy-phenyl)-7-(3-piperidin-1-yl-propoxy)-1,2,3,4-tetrahydro-isoquinoline]
8.70 | 7.92 | 8.05 |  | COc1cccc(C2CN(C)Cc3cc(OCC4CCN(C)CC4)ccc32)c1 (stereo not drawn) [Example 92, 4-(3-Methoxy-phenyl)-2-methyl-7-(1-methyl-piperidin-4-ylmethoxy)-1,2,3,4-tetrahydro-isoquinoline]

The next lines start with the compound.

SMILES | pKi (human H3 receptor) | pKi (Rat SERT) | pKi (human SERT) | Ki (Rat SERT; Rat SERT Ki (nM)) [nM]
COc1ccc(C2CN(C)Cc3cc(OCCCN4CCCC(CO)C4)ccc32)cc1 (stereo not drawn) [Example 23, (1-{3-[4-(4-Methoxy-phenyl)-2-methyl-1,2,3,4-tetrahydro-isoquinolin-7-yloxy]-propyl}-piperidin-3-yl)-methanol] | 8.70 | 8.70 | 8.40 | 
COc1ccc(C2CN(C)Cc3cc(OCCCN4CCCCC4CO)ccc32)cc1 (stereo not drawn) [Example 24, (1-{3-[4-(4-Methoxy-phenyl)-2-methyl-1,2,3,4-tetrahydro-isoquinolin-7-yloxy]-propyl}-piperidin-2-yl)-methanol] | 8.70 | 8.70 | 8.52 | 
COc1ccc(C2CN(C)Cc3cc(OCCCN4CCC(CCO)CC4)ccc32)cc1 (stereo not drawn) [Example 26, 2-(1-{3-[4-(4-Methoxy-phenyl)-2-methyl-1,2,3,4-tetrahydro-isoquinolin-7-yloxy]-propyl}-piperidin-4-yl)-ethanol] | 7.92 | 8.70 | 8.30 | 
COc1ccc(C2CN(C)Cc3cc(OCCCN4CCC[C@@H]4CO)ccc32)cc1 (stereo partly drawn) [Example 30, (1-{3-[4-(4-Methoxy-phenyl)-2-methyl-1,2,3,4-tetrahydro-isoquinolin-7-yloxy]-propyl}-pyrrolidin-(2R)-yl)-methanol] | 8.52 | 8.70 | 8.70 | 
COc1ccc(C2CN(C)Cc3cc(OCCCN4CCCC(F)C4)ccc32)cc1 (stereo not drawn) [Example 39, 7-[3-(3-Fluoro-piperidin-1-yl)-propoxy]-4-(4-methoxy-phenyl)-2-methyl-1,2,3,4-tetrahydro-isoquinoline] | 8.52 | 8.52 | 8.52 | 
CN1Cc2cc(OCCCN3CCC(F)CC3)ccc2C(c2cccc(F)c2)C1 (stereo not drawn) [Example 48, 4-(3-Fluoro-phenyl)-7-[3-(4-fluoro-piperidin-1-yl)-propoxy]-2-methyl-1,2,3,4-tetrahydro-isoquinoline] | 8.22 | 7.51 | 6.93 | 
COc1ccc(C2CN(C(C)C)Cc3cc(OCCCN4CCCCC4)ccc32)cc1 (stereo not drawn) [Example 68, 2-Isopropyl-4-(4-methoxy-phenyl)-7-(3-piperidin-1-yl-propoxy)-1,2,3,4-tetrahydro-isoquinoline] | 9.00 | 7.66 | 7.05 | 
COc1ccc(C2CN(C)Cc3cc(OCC4CCN(C)CC4)ccc32)cc1 (stereo not drawn) [Example 84, 4-(4-Methoxy-phenyl)-2-methyl-7-(1-methyl-piperidin-4-ylmethoxy)-1,2,3,4-tetrahydro-isoquinoline] | 8.52 | 8.15 | 8.15 | 
COc1cccc(C2CN(C)Cc3cc(OCC4CCN(C(C)C)CC4)ccc32)c1 (stereo not drawn) [Example 91, 7-(1-Isopropyl-piperidin-4-ylmethoxy)-4-(3-methoxy-phenyl)-2-methyl-1,2,3,4-tetrahydro-isoquinoline] | 9.00 | 7.96 | 7.96 | 
CSc1ccc(C2CN(C)Cc3cc(OCC4CCN(C(C)C)CC4)ccc32)cc1 (stereo not drawn) [Example 103, 7-(1-Isopropyl-piperidin-4-ylmethoxy)-2-methyl-4-(4-methylsulfanyl-phenyl)-1,2,3,4-tetrahydro-isoquinoline] | 8.15 | 8.10 | 8.52 | 
CSc1ccc(C2CN(C)Cc3cc(OCC4CCN(C5CCC5)CC4)ccc32)cc1 (stereo not drawn) [Example 104, 7-(1-Cyclobutyl-piperidin-4-ylmethoxy)-2-methyl-4-(4-methylsulfanyl-phenyl)-1,2,3,4-tetrahydro-isoquinoline] | 7.96 | 8.30 | 8.52 | 
